Several values for one entry are separate records, joined by “and”; a condition that tells them apart may be missing. Equal values may be shown once.

This assay has as its system human primary preadipocytes. Put plainly: Suppression of adipogenesis in cultures of human primary preadipocytes (EC50). It counts as cell-based.
Consider `O=C(OC1Cc2c(O)cc(O)cc2OC1c1cc(O)c(O)c(O)c1)c1cc(O)c(O)c(O)c1` (stereo not shown) [Phytonutrient C7, Epigallocatechin Gallate (EGCG)], for which the EC50 is 20 µM and 9.2 µg/mL.

Take `COc1ccc2cc3[n+](cc2c1OC)CCc1cc2c(cc1-3)OCO2` [Phytonutrient C1, Berberine]: the EC50 is 10 µM and 3.5 µg/mL.

As to `COc1cc(/C=C/C(=O)/C=C(O)/C=C/c2ccc(O)c(OC)c2)ccc1O` [Phytonutrient C9, Curcumin], the EC50 was 20 µM and 7.5 µg/mL. To `Oc1ccc(/C=C/c2cc(O)cc(O)c2)cc1` [Phytonutrient C3, Resveratrol] belongs 40 µM and 9.1 µg/mL; to `O=c1c(O)c(-c2ccc(O)c(O)c2)oc2cc(O)cc(O)c12` [Phytonutrient C5, Quercetin], 25 µM and 7.6 µg/mL; to `O=c1cc(-c2ccc(O)c(O)c2)oc2cc(O)cc(O)c12` [Phytonutrient C2, Luteolin], 20 µM and 5.7 µg/mL. To `O=c1c(O)c(-c2ccc(O)c(O)c2)oc2cc(O)ccc12` [Phytonutrient C4, Fisetin] belongs 50 µM and 14.3 µg/mL.
